Where “and” joins values, the source holds several entries; their conditions need not be identical. Equal values may be shown once. Read-outs that look alike come from different tables or passages of the source.
Tests used:
OAT1/3 [1] = conditions: PDA, cited from earlier work
OAT3 [2] = target: T1, OAT3 (Homo sapiens, UniProt Q8TCC7); experiment: PDA uptake in OAT3-transfected HEK293 cells and RAF scaling; format: in vitro ADME
T1 sequence (Q8TCC7 1-542): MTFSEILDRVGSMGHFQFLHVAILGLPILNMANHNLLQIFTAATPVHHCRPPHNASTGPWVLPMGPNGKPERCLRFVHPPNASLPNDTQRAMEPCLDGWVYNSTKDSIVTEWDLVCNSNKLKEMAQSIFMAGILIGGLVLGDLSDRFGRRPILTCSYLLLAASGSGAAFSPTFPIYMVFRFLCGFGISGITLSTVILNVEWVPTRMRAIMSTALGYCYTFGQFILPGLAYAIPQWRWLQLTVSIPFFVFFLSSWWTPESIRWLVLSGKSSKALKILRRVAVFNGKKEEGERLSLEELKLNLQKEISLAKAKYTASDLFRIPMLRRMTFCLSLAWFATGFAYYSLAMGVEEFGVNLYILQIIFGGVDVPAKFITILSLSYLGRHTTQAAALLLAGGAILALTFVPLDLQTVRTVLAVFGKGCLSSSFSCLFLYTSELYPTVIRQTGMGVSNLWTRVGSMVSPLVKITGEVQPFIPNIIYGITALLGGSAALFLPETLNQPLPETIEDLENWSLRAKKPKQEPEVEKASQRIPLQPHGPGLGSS

OAT1 = target: T2, OAT1 (Homo sapiens, UniProt Q4U2R8); experiment: PDA uptake in OAT1-transfected HEK293 cells and RAF scaling; format: in vitro ADME
T2 sequence (Q4U2R8 1-563): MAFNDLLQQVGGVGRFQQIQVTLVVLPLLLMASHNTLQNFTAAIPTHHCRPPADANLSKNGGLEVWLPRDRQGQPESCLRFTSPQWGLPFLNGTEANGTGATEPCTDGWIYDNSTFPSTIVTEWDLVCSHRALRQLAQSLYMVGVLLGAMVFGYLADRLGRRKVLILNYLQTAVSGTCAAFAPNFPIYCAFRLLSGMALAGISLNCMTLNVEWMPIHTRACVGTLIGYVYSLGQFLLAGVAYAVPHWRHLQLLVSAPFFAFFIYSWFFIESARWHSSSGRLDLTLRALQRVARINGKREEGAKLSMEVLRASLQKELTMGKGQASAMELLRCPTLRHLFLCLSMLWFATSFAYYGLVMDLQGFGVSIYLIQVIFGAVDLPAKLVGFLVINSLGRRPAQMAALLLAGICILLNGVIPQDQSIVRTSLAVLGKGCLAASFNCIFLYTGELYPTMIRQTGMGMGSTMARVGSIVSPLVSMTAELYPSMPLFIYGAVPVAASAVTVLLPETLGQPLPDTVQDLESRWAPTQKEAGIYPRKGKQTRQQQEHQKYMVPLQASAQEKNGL

[3] = PDA, cited from earlier work
OAT2 = target: T3, OAT2 (Homo sapiens, UniProt Q9Y694); experiment: PDA uptake in OAT2-transfected HEK293 cells and RAF scaling; format: in vitro ADME
T3 sequence (Q9Y694 1-546 isoform Q9Y694-2): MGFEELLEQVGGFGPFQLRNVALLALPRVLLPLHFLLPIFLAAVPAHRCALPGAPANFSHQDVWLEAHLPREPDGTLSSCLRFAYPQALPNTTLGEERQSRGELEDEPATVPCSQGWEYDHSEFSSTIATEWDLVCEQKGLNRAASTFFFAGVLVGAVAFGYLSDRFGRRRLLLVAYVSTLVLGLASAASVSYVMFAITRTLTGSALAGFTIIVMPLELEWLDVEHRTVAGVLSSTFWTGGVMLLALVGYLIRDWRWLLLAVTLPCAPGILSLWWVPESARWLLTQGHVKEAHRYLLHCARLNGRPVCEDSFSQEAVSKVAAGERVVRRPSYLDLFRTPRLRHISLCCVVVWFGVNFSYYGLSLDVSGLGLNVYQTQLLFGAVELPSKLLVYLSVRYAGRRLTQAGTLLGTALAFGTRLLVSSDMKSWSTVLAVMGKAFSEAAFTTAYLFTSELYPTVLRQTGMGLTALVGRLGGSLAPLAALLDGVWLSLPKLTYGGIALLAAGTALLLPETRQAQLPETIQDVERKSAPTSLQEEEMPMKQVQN

[4] = design: species or system human; conditions: PDA; in vitro-in vivo scaling
OAT1/3 [5] = experiment: Effect of OAT inhibitors on PDA pharmacokinetics in clinical DDI studies; conditions: for AUC ratio / Cmax ratio: PDA; for AUC(0-t) / Cmax: both, human, in vivo
[6] = PDA plasma and urine levels at baseline in five clinical studies; format: in vivo, human; conditions: for AUC(0-t) / Cmax / concentration at 0 min / CL renal: human; for AUC(0-t) / Cmax / concentration at 0 min: plasma; for AUC(0-t): AUC0-24h; for concentration at 0 min: predose (0 min) plasma concentration; for CL renal: CLR
OAT3 [7] = target: T1, OAT3; experiment: Inhibition of OAT3-mediated uptake in transfected HEK293 cells; format: in vitro ADME; conditions: from in vitro IC50 values
[8] = Shen 2019 Study 1, presence/absence of probenecid
[9] = Shen 2019 Study 1, probenecid 1000 mg single oral dose
[10] = Shen 2019 Study 2, presence/absence of probenecid
[11] = Shen 2019 Study 2, probenecid 1000 mg single oral dose
[12] = Willemin 2021, presence/absence of probenecid
[13] = Willemin 2021, probenecid 500 mg multiple oral doses
[14] = physiological scalars and relative activity factors
[15] = presence/absence of probenecid 1000 mg BID, Study 1
[16] = presence/absence of ritlecitinib 200 mg QD, Study 2
[17] = both, PDA plasma, Study 1 baseline (no inhibitor), n=12
[18] = both, PDA plasma, Study 2 baseline, n=12
[19] = both, PDA plasma, Study 3 baseline, n=12
[20] = male, PDA plasma, Study 5 baseline, males, n=23

## Cc1ncc(CO)c(C(=O)O)c1O [PDA, Pyridoxic acid]
OAT1/3 [1]; Indian population
  inter-individual variability in predose plasma concentrations: 33 fold and ~ 33 fold
OAT1/3 [1]; Shen 2019 Study 1, baseline
  AUC0-24h: 46 ± 53.7 ng·h/mL
  CLR: 226.7 ± 268.3 mL/min
  Cmax: 3.3 ± 4.6 ng/mL
OAT1/3 [1]; [8]
  AUC ratio: 3.1
  CLR ratio: 0.37
  Cmax ratio: 3.1
OAT1/3 [1]; [9]
  AUC0-24h: 116 ± 151 ng·h/mL
  CLR: 65 ± 55 mL/min
  Cmax: 9.3 ± 11.5 ng/mL
OAT1/3 [1]; Shen 2019 Study 2, baseline
  AUC0-24h: 57.9 ± 75.7 ng·h/mL
  CLR: 221.7 ± 221.7 mL/min
  Cmax: 3.6 ± 4.5 ng/mL
OAT1/3 [1]; [10]
  AUC ratio: 3.2
  CLR ratio: 0.4
  Cmax ratio: 3.4
OAT1/3 [1]; [11]
  AUC0-24h: 152 ± 174 ng·h/mL
  CLR: 67.6 ± 41.2 mL/min
  Cmax: 10.1 ± 10.2 ng/mL
OAT1/3 [1]; Willemin 2021, baseline
  AUC0-24h: 71.8 ± 21.3 ng·h/mL
  CLR: 328.3 ± 203.3 mL/min
  Cmax: 3.6 ± 0.8 ng/mL
OAT1/3 [1]; [12]
  AUC ratio: 3.7
  CLR ratio: 0.17
  Cmax ratio: 3.7
OAT1/3 [1]; [13]
  AUC0-24h: 271 ± 93 ng·h/mL
  CLR: 53.3 ± 25 mL/min
  Cmax: 13.7 ± 4.1 ng/mL
OAT3 [2]; PDA renal secretion
  ft (fraction transported) OAT3: 0.82
OAT3 [2]; [14]
  active uptake clearance via OAT3, scaled: 7.55 mL/min/kg
OAT1; PDA renal secretion
  ft (fraction transported) OAT1: < 0.1
OAT1; PDA, in vitro-in vivo scaling
  contribution of OAT1-specific active secretion to total CLR: 7%
OAT1; [14]
  active uptake clearance via OAT1, scaled: 3.31 mL/min/kg
[3]
  fu,plasma: 0.08–0.1
[3]; ref 13 (supplement ref 7)
  fu,plasma: 0.092
OAT2; PDA renal secretion
  ft (fraction transported) OAT2: < 0.1
OAT2; PDA, in vitro-in vivo scaling
  contribution of OAT2-specific active secretion to total CLR: 6%
OAT2; [14]
  active uptake clearance via OAT2, scaled: 0.35 mL/min/kg
[4]
  contribution of glomerular filtration to total CLR: 5% and ~ 5%
OAT1/3 [5]; [15]
  AUC ratio: 3.2
  Cmax ratio: 3
OAT1/3 [5]; [16]
  AUC ratio: 1.1
  Cmax ratio: 1.1
OAT1/3 [5]; presence/absence of tafamidis 61 mg, Study 3
  AUC ratio: 1.2
OAT1/3 [5]; 200 mg
  AUC(0-t): 72.8 ± 22.6 ng·h/mL
  Cmax: 3.9 ± 1 ng/mL
OAT1/3 [5]; 1000 mg
  AUC(0-t): 235 ± 76 ng·h/mL
  Cmax: 11.9 ± 3.4 ng/mL
[6]; PDA
  intra-individual variability in plasma concentration across 0-24 h: 16 % CV
[6]; PDA, Studies 4 and 5
  amount excreted unchanged in urine lower in White males than Japanese males: 35%
[6]; PDA, across the five studies
  variability in predose plasma concentrations and AUC0-24h: < 6 fold
[6]; PDA, all five studies, n = 71
  inter-individual (overall) variability in plasma concentration: ~ 40% and < 40%
[6]; PDA, five studies
  overall variability in AUC0-24h: 38%
  overall variability in predose plasma concentration: 44%
[6]; PDA, p < 0.05
  AUC0-24h / baseline plasma level higher in White males than Japanese males: 38%
  CLR lower in White males than Japanese males: ~ 54%
  amount excreted in urine higher in Japanese males than White males: 1.5 fold
  renal clearance higher in Japanese males than White males: 2.2 fold and ~ 2.2 fold
[6]; PDA, p > 0.05
  average AUC0-24h and Cmax lower in Hispanic/Latino compared to Whites: ~ 30%
[6]; PDA, ~70% White males vs all Japanese males
  AUC0-24h higher in Study 5 compared to Study 4: 35%
[6]; [17]
  AUC(0-t): 86.7 ± 47.4 ng·h/mL
  Cmax: 4.6 ± 2.5 ng/mL
[6]; [18]
  AUC(0-t): 70.5 ± 24.3 ng·h/mL
  Cmax: 3.8 ± 1.3 ng/mL
[6]; [19]
  AUC(0-t): 64.2 ± 21.2 ng·h/mL
  Cmax: 3.5 ± 1.1 ng/mL
[6]; both, mean, PDA, across the five studies
  concentration at 0 min: 3.3 ng/mL
[6]; both, range, PDA, across the five studies
  concentration at 0 min: 1.6 to 9.2 ng/mL
[6]; male, PDA plasma baseline, males only, Japanese (13)
  AUC(0-t): 56.5 ± 15.2 ng·h/mL
[6]; male, PDA plasma baseline, males only, White (37)
  AUC(0-t): 78.2 ± 28.2 ng·h/mL
[6]; [20]
  AUC(0-t): 74.6 ± 15.7 ng·h/mL
  Cmax: 4.6 ± 1.9 ng/mL
[6]; male, urine and plasma, PDA, Study 5 baseline
  CL renal: 230 ± 54.2 mL/min
[6]; male, urine, PDA, Japanese males (13)
  CL renal: 546 ± 122 mL/min
[6]; male, urine, PDA, White males (16)
  CL renal: 250 ± 48.2 mL/min

## C=CC(=O)N1C[C@H](Nc2ncnc3[nH]ccc23)CC[C@@H]1C [Ritlecitinib]
OAT1/3 [5]; ritlecitinib
  change in PDA plasma concentration in the clinic: no‐change
OAT1/3 [5]; ritlecitinib administration, Study 2
  change in the AUC0-24h and Cmax of PDA: no significant change

## CCCN(CCC)S(=O)(=O)c1ccc(C(=O)O)cc1 [Probenecid]
OAT3 [7]
  potency as inhibitor for OAT3 versus OAT1: 5 fold

From paper PMC12072223 (CPT: Pharmacometrics & Systems Pharmacology, 2025)
